Laboratory results published in patent US12054510B2, “2′ and/or 5′ amino-acid ester phosphoramidate 3′-deoxy adenosine derivatives as anti-cancer compounds” (Nucana plc, priority 2014, dated 2024).

Key:
RL (CRL-2261) = experiment: ATP ViaLight plus cell viability assay; format: cell-based
Description: (§1) Certain compounds of the invention were subjected to further studies to test the cytotoxic activity of certain compounds of the invention and also to measure their activity against 4 haematological cancer cell lines • TdT positive CEM (Human ALL) • TdT negative K562 (Human CML) • TdT negative H1-60 (Human ANLL) • RL (CRL-2261) non-HD lymphoma • The concentrations of the active metabolite dATP (Cordycepin triphosphate) in these cell lines was also measured. • The cytotoxic activity and the intracellular 3′-dATP concentrations were also studied in the presence of hENT1, Adenosine Kinase (AK) and Adenosine Deaminase pharmacological inhibitors in CEM and RL cancer cell lines. Said inhibitors that mimic known cancer resistance mechanisms. Methods Cell Culture
(§2) HL-60, K562, CCRF-CEM and RL cell lines were cultured in RPMI-1640 medium (Sigma Aldrich, UK), which were supplemented with 10% Fetal Bovine Serum (FBS) (PAA Laboratories), 1% amphotericin B (5.5 ml) and 1% penicillin/streptomycin (5.5 ml) (PAA Laboratories) and grown in flasks at 37° C. incubator with 5% CO2.
(§3) The amount of ATP was used as a measurement of cell number and cell viability. ATP ViaLight™ plus assay kit (Lonza, USA: Product No. LT07-121) to detect ATP in cells treated in luminescence compatible 96 well plates (initial concentration of cells was 1×10^4 cells/well) with cordycepin and ProTides at concentrations of: 0, 0.1, 0.5, 1, 5 and 10 μM, followed by incubation for 72 hours at 37° C. incubator with 5% CO2. For inhibitor studies, 10 μM of NBTI or 1 μM EHNA or A-134974 was added and left for 5 minutes before adding the drugs (see section 5 for inhibitor details).
(§4) After incubation, 50 μl of cell lysis reagent was added to the 96 well plates to release the intracellular ATP, followed by 100 μl of ATP monitoring reagent (AMR). The luminescent values of each well were determined using FLUOstar OPTIMA microplate reader (BMG Labtech) which convert ATP into light by using luciferase enzyme. Therefore, the amount of luminescence produced was directly proportional to the amount of ATP.
(§5) Cell lines were treated in the same way as described above but before treatment with drugs, a number of inhibitors were added: • 1) Nitrobenzylthioinosine (NBTI) (Sigma-Aldrich, St. Louis, MO, product # N2255) blocks nucleoside transporters • 2) EHNA hydrochloride (Sigma-Aldrich, St. Louis, MO, product # E114) blocks adenosine deaminase • 3) Adenosine kinase inhibitor A-134974 dihydrochloride hydrate (Sigma-Aldrich, St. Louis, MO, product # A2846): blocks adenosine kinase
(§6) The dose-response curves of cytotoxicity of the drugs was determined using non-linear regression analysis of percentage cell viability versus concentration and EC50 values were obtained. The intracellular assay was conducted in five replicates for each condition. Intracellular assay was determined using paired t test (two-tailed) analysis of 3′ ATP/ATP concentration and p-values were obtained. For all the analysis, Prism Software program (GraphPad Software) was used and Microsoft Powerpoint® 2013 was used to plot the results.

MOLT-4 = experiment: CellTiterGlo cell viability assay, initial screening; format: cell-based
Description: (§7) In vitro viability assays were performed to assess the effects of compounds on cell viability in 7 selected cell lines over 72 hr using the CellTiterGlo (CTG, Promega-G7573) assay. The tests were performed in duplicates with treatment of compounds at 9 points, 3.16 folds titration in 96 well plates over ˜72 hr. The compound starting concentrations were […]. Cell viability assay using CellTiterGlo in 96-well plate were performed. The compound treatment was 72 hrs, under standard growth conditions, and in duplicate. Compounds were dissolved to 40 mM with thawed […]. Compounds were serially diluted at 3.16 fold in thawed DMSO, and warmed to 37° C. before being dissolved in media (2 μl+200 μl). After compounds were dissolved in media (media was also warmed to 37° C.). Media containing compounds were warmed to 37° C. in incubator and then compounds in media were added to cell plates (50 μl+50 μl), in duplicates. The compounds final concentrations were from […] to 19.9 nM. All compound solubilities were checked and recorded again, then the plates were transferred to CO2 tissue culture incubator immediately and incubated for 3 days. DMSO final concentration is 0.5%.

MCF-7 = experiment: as above; format: cell-based
Description: as §7

HL-60 [1] = experiment: as above; format: cell-based
Description: as §7

HepG2 = experiment: as above; format: cell-based; conditions: HepG2; 72 hr; Table II
Description: as §7

CCRF-CEM = experiment: as above; format: cell-based
Description: as §7

KG-1 [2] = experiment: as above; format: cell-based
Description: as §7

K562 [3] = experiment: as above; format: cell-based; conditions: 72 hr, Table II
Description: as §7

CEM (TdT+ve) = experiment: ATP ViaLight plus cell viability assay; format: cell-based, Human; conditions: for (FD) fold difference compared to control: CEM
Description: as §1, §2, §3, §4, §5, §6

HL-60 [4] = experiment: ATP ViaLight plus cell viability assay; format: cell-based, Human; conditions: HL-60
Description: as §1, §2, §3, §4, §6

K562 [5] = experiment: ATP ViaLight plus cell viability assay; format: cell-based, Human; conditions: K562
Description: as §1, §2, §3, §4, §6

Jurkat = experiment: Solid tumour and haematological malignancy assay (CellTiterGlo); format: cell-based; conditions: 72 hr
Description: (§8) In vitro viability assay were performed to assess the effects of compounds on cell viability in selected cell lines over 72 hr using the CellTiterGlo (CTG, Promega-G7573) assay. The tests were performed in duplicates with treatment of compounds at 9 points, 3.16 folds titration in 96 well plates over ˜72 hr. The compound starting concentrations were 198 mM. Cell viability assay using CellTiterGlo in 96-well plate were performed. Compound treatment 72 hrs, standard growth conditions, duplicates. Compounds were dissolved to 40 mM with thawed […]. Compounds were serially diluted at 3.16 fold in thawed DMSO, and warmed to 37° C. before being dissolved in media (2 μl+200 μl). After compounds were dissolved in media, media containing compounds were warmed to 37° C. in incubator and then compounds in media were added to cell plates (50 μl+50 μl) in duplicates. The compounds' final concentrations were from 198M to 19.9 nM. All compound solubilities were checked and recorded again, then the plates were transferred to CO2 tissue culture incubator immediately and incubated for 3 days. DMSO final concentration is 0.5%.

BxPC-3 = experiment: as above; format: cell-based; conditions: 72 hr
Description: as §8

CCRFCEM = experiment: as above; format: cell-based; conditions: CCRFCEM; 72 hr
Description: as §8, with “The tests were performed in duplicates with treatment of compounds at 9 points, 3.16 folds titration in 96 well plates over ˜72 hr. The compound starting concentrations were 198 mM.” left out, “Compounds were serially diluted at 3.16 fold in thawed DMSO, and warmed to 37° C. before being dissolved in media (2 μl+200 μl).” left out, “The compounds' final concentrations were from 198M to 19.9 nM.” left out

HT29 = experiment: as above; format: cell-based; conditions: HT29; 72 hr
Description: as §8, with “The tests were performed in duplicates with treatment of compounds at 9 points, 3.16 folds titration in 96 well plates over ˜72 hr. The compound starting concentrations were 198 mM.” left out, “Compounds were serially diluted at 3.16 fold in thawed DMSO, and warmed to 37° C. before being dissolved in media (2 μl+200 μl).” left out, “The compounds' final concentrations were from 198M to 19.9 nM.” left out

KG-1 [6] = experiment: as above; format: cell-based; conditions: KG-1; 72 hr
Description: as §8, with “The tests were performed in duplicates with treatment of compounds at 9 points, 3.16 folds titration in 96 well plates over ˜72 hr. The compound starting concentrations were 198 mM.” left out, “Compounds were serially diluted at 3.16 fold in thawed DMSO, and warmed to 37° C. before being dissolved in media (2 μl+200 μl).” left out, “The compounds' final concentrations were from 198M to 19.9 nM.” left out

Z138 = experiment: as above; format: cell-based; conditions: 72 hr
Description: as §8

SW620 = experiment: as above; format: cell-based; conditions: SW620; 72 hr
Description: as §8

SMILES | M.I. %: maximum percentage inhibition of cell viability (MOLT-4; MOLT-4, 72 hr, Table II) | M.I. %: maximum percentage inhibition of cell viability (MCF-7; MCF-7, 72 hr, Table II) | M.I. %: maximum percentage inhibition of cell viability (HL-60 [1]; HL-60, 72 hr, Table II) | M.I. %: maximum percentage inhibition of cell viability (HepG2) | M.I. %: maximum percentage inhibition of cell viability (CCRF-CEM; CCRF-CEM, 72 hr, Table II) | M.I. %: maximum percentage inhibition of cell viability (KG-1 [2]; KG-1, 72 hr, Table II) | M.I. %: maximum percentage inhibition of cell viability (K562 [3]) | MI % (Jurkat) | MI % (BxPC-3) | further results
CCCCCOC(=O)[C@H](CC(C)C)NP(=O)(OC[C@@H]1C[C@@H](O)[C@H](n2cnc3c(N)ncnc32)O1)Oc1cccc2ccccc12 (mixture of isomers) [D, (2S)-pentyl 2-(((((2S,4R,5R)-5-(6-amino-9H-purin-9-yl)-4-hydroxytetrahydrofuran-2-yl)methoxy)(naphthalen-1-yloxy)phosphoryl)amino)-4-methylpentanoate] | 100% | 100% | 100% | 99% | 100% | 100% | 99% |  |  | (FD) fold difference compared to Cordycepin = Cordycepin IC50/ProTide IC50 (RL (CRL-2261)): 5; (FD) fold difference compared to Cordycepin = Cordycepin IC50/ProTide IC50 (CEM (TdT+ve); CEM (TdT+ve)): 3; (FD) fold difference compared to Cordycepin = Cordycepin IC50/ProTide IC50 (HL-60 [4]): 2; (FD) fold difference compared to Cordycepin = Cordycepin IC50/ProTide IC50 (K562 [5]): 3
Nc1ncnc2c1ncn2[C@@H]1O[C@H](CO)C[C@H]1O [Cordycepin, 3′-deoxyadenosine, reference compound] |  |  |  | 66% |  |  | 88% | 20% | 22% | (FD) fold difference compared to control (RL (CRL-2261); AK): 4; (FD) fold difference compared to control (RL (CRL-2261); EHNA): 2; (FD) fold difference compared to control (RL (CRL-2261); NBTI): 2; M.I. %: maximum percentage inhibition of cell viability (MOLT-4; human, 72 h): 52%; M.I. %: maximum percentage inhibition of cell viability (MCF-7; human, 72 h): 78%; M.I. %: maximum percentage inhibition of cell viability (HL-60 [1]; human, 72 h): 88%; M.I. %: maximum percentage inhibition of cell viability (CCRF-CEM; human, 72 h): 12%; M.I. %: maximum percentage inhibition of cell viability (KG-1 [2]; human, 72 h): 78%; (FD) fold difference compared to control (CEM (TdT+ve); AK): 3; (FD) fold difference compared to control (CEM (TdT+ve); EHNA): −16; (FD) fold difference compared to control (CEM (TdT+ve); NBTI): 5
Nc1ncnc2c1ncn2[C@@H]1O[C@H](COP(=O)(NCC(=O)OCc2ccccc2)Oc2ccccc2)C[C@H]1O (stereo partly drawn) [C, Benzyl 2-(((((2S,4R,5R)-5-(6-amino-9H-purin-9-yl)-4-hydroxytetrahydrofuran-2-yl)methoxy)(phenoxy)phosphoryl)amino)acetate] | 93% | 87% | 82% | 59% | 94% | 65% | 92% | 100% | 99% | MI % (CCRFCEM): 100%; MI % (HT29): 99%; MI % (KG-1 [6]): 102%; MI % (Z138): 100%; MI % (SW620): 100%
